In patent US8383139B2 (Bayer CropScience AG, priority 2008, dated 2013):
Read-outs that look alike come from different tables or passages of the source.

Legend:
[1] = log P by HPLC on reversed-phase columns (C 18), EEC Directive 79/831 Annex V.A8; format: physicochemical; details: reversed-phase C18 HPLC column
Alternaria solani = assay: Alternaria test (tomato)/protective; format: in vivo; details: 72 h, 100 ppm active substance, protective, evaluation 3 days after inoculation, read-out: degree of effectiveness
Uromyces appendiculatus = assay: Uromyces test (beans)/protective; format: in vivo; details: 240 h, 100 ppm active substance, protective, evaluation 10 days after inoculation, read-out: degree of effectiveness
Summary of the method: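 Young bean plants were sprayed with compound (acetone/dimethylacetamide/emulsifier concentrate diluted in water), dried, then inoculated with U. appendiculatus spores. They were held 1 day at ~20 °C, 100% RH, then kept in a greenhouse at ~21 °C, ~90% RH. Efficacy was scored at 10 days post-inoculation (0% = control, 100% = no infestation).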

Sphaerotheca fuliginea = assay: Sphaerotheca test (cucumber)/protective; format: in vivo; details: Podosphaera fuliginea, 168 h, 500 ppm active substance, protective, evaluation 7 days after inoculation, read-out: degree of effectiveness
Summary of the method: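 Young cucumber plants sprayed at the stated rate with active substance in DMF/alkylaryl polyglycol ether emulsifier diluted in water, then inoculated with Sphaerotheca fuliginea spores one day later. Kept in greenhouse at 70% relative humidity, 23° C.; scored 7 days post-inoculation as % efficacy (0% = untreated control, 100% = no infestation).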

Puccinia triticina = Puccinia triticina test (wheat)/protective; format: in vivo; details: 192 h, 500 ppm active substance, protective, evaluation 8 days after inoculation, read-out: degree of effectiveness
Summary of the method: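 Protective test: young wheat plants sprayed with compound (in N,N-dimethylacetamide/emulsifier, diluted in water) at the stated rate, dried, then inoculated with Puccinia triticina spores; 48 h at 20 °C, 100% RH, then greenhouse ~20 °C, ~80% RH. Efficacy scored 8 days post-inoculation, 0% = untreated control, 100% = no infestation.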

Septoria tritici = Septoria tritici test (wheat)/protective; format: in vivo; details: Zymoseptoria tritici, 504 h, 500 ppm active substance, protective, evaluation 21 days after inoculation, read-out: degree of effectiveness
Summary of the method: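 Young wheat plants sprayed with compound in dimethylacetamide/emulsifier-water, then inoculated with S. tritici spores once dry. Kept 48 h at 20 °C/100% RH, 60 h at 15 °C/100% RH, then greenhouse ~15 °C/80% RH. Scored 21 days post-inoculation as % efficacy versus untreated control.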

Phakopsora pachyrhizi = assay: Phakopsora test (soybean)/protective; format: in vivo; details: 264 h, 500 ppm active substance, protective, evaluation 11 days after inoculation, read-out: degree of effectiveness
Description: • Solvent: 28.5 parts by weight of acetone • Emulsifier: 1.5 parts by weight of polyoxyethylene alkylphenyl ether (polyoxy-ethylene (16) tristearylphenyl ether)
To prepare a suitable active substance composition, 1 part by weight of active substance is mixed with the given amounts of solvent and emulsifier and the concentrate is diluted to the desired concentration using water.
For the testing of protective effectiveness, young plants are sprayed with the active substance composition at the application rate given. One day after the spraying, the plants are sprayed with an aqueous suspension of spores of Phakopsora pachyrhizi. The plants remain in a greenhouse at 20° C. and 80% relative humidity.
Evaluation is carried out 11 days after the inoculation. In this connection, 0% means a degree of effectiveness corresponding to that of the control, while a degree of effectiveness of 100% means that no infestation is observed.

[2] = pH 2.3, [a] HPLC, acid region pH 2.3, 0.1% aqueous phosphoric acid and acetonitrile, read-out: log p
[3] = pH 2.3, pH 2.3, given in synthesis examples, read-out: log P (pH2.3)

Row | SMILES | chromatographic logP [1, 2] | chromatographic logP [1, 3] | pest or weed control at 100 ppm (Alternaria solani) [%] | pest or weed control at 100 ppm (Uromyces appendiculatus) [%] | pest or weed control at 500 ppm (Sphaerotheca fuliginea) [%] | pest or weed control at 500 ppm (Puccinia triticina) [%] | pest or weed control at 500 ppm (Septoria tritici) [%] | pest or weed control at 500 ppm (Phakopsora pachyrhizi) [%]
1 | CCN(C)C=Nc1cc(C)c(Oc2nc(C(C)c3ccc(Cl)cc3)ns2)cc1C (stereo not drawn) [Example 17, N′-[4-({3-[1-(4-chlorophenyl)ethyl]-1,2,4-thiadiazol-5-yl}oxy)-2,5-dimethylphenyl]-N-ethyl-N-methylimidoformamide] | 2.34 |  | ≥ 70 | ≥ 70 | ≥ 70 | ≥ 70 | ≥ 70 | ≥ 80
2 | CCN(C)C=Nc1cc(C)c(Oc2nc(Cc3ccc(C)cc3[N+](=O)[O-])ns2)cc1C [Example 24, N′-(2,5-dimethyl-4-{[3-(4-methyl-2-nitrobenzyl)-1,2,4-thiadiazol-5-yl]oxy}phenyl)-N-ethyl-N-methylimidoformamide] | 1.89 |  | ≥ 70 | ≥ 70 | ≥ 70 | ≥ 70 | ≥ 70 | ≥ 80
3 | CCN(C)C=Nc1cc(C)c(Oc2nc(Cc3ccc(Cl)cc3Cl)ns2)cc1C [Example 11, N′-(4-{[3-(2,4-dichlorobenzyl)-1,2,4-thiadiazol-5-yl]oxy}-2,5-dimethylphenyl)-N-ethyl-N-methylimidoformamide] | 2.19 |  | ≥ 70 | ≥ 70 | ≥ 70 | ≥ 70 | ≥ 70 | ≥ 80
4 | CCN(C)C=Nc1cc(C)c(Oc2nc(C(C)(C)c3ccc(Cl)cc3)ns2)cc1C [Example 25, N′-[4-({3-[2-(4-chlorophenyl)propan-2-yl]-1,2,4-thiadiazol-5-yl}oxy)-2,5-dimethylphenyl]-N-ethyl-N-methylimidoformamide] | 2.55 |  | ≥ 70 | ≥ 70 | ≥ 70 | ≥ 70 | ≥ 70 | ≥ 80

The next lines start with results.

Row | chromatographic logP [1, 2] | chromatographic logP [1, 3] | SMILES | pest or weed control at 100 ppm (Alternaria solani) [%] | pest or weed control at 100 ppm (Uromyces appendiculatus) [%] | pest or weed control at 500 ppm (Sphaerotheca fuliginea) [%] | pest or weed control at 500 ppm (Puccinia triticina) [%] | pest or weed control at 500 ppm (Septoria tritici) [%] | pest or weed control at 500 ppm (Phakopsora pachyrhizi) [%]
5 | 2.31 | 2.31 | CCN(C)C=Nc1cc(C)c(Oc2nc(Cc3cccc(Cl)c3)ns2)cc1C [Example 35, N′-(4-{[3-(3-chlorobenzyl)-1,2,4-thiadiazol-5-yl]oxy}-2,5-dimethylphenyl)-N-ethyl-N-methylimidoformamide] | ≥ 70 | ≥ 70 | ≥ 70 | ≥ 70 | ≥ 70 | ≥ 80
6 | 2.21 | 2.28 | CCN(C)C=Nc1cc(C)c(Oc2nc(C3(c4ccc(Cl)cc4)CC3)ns2)cc1C [Example 37, N′-[4-({3-[1-(4-chlorophenyl)cyclopropyl]-1,2,4-thiadiazol-5-yl}oxy)-2,5-dimethylphenyl]-N-ethyl-N-methylimidoformamide] | ≥ 70 | ≥ 70 | ≥ 70 | ≥ 70 | ≥ 70 | ≥ 80
7 | 1.94 |  | CCN(C)C=Nc1cc(C)c(Oc2nc(Cc3ccc(F)cc3F)ns2)cc1C [Example 52, N′-(4-{[3-(2,4-difluorobenzyl)-1,2,4-thiadiazol-5-yl]oxy}-2,5-dimethylphenyl)-N-ethyl-N-methylimidoformamide] | ≥ 70 | ≥ 70 | ≥ 70 | ≥ 70 | ≥ 70 | ≥ 80
8 | 1.83 |  | CCN(C)C=Nc1cc(C)c(Oc2nc(Cc3ccccc3OC)ns2)cc1C [Example 49, N-ethyl-N′-(4-{[3-(2-methoxybenzyl)-1,2,4-thiadiazol-5-yl]oxy}-2,5-dimethylphenyl)-N-methylimidoformamide] | ≥ 70 | ≥ 70 | ≥ 70 | ≥ 70 | ≥ 70 | ≥ 80
9 | 2.55 |  | CCN(C)C=Nc1cc(Cl)c(Oc2nc(C3(c4ccc(Cl)cc4)CC3)ns2)cc1C [Example 40, N′-[5-chloro-4-({3-[1-(4-chlorophenyl)cyclopropyl]-1,2,4-thiadiazol-5-yl}oxy)-2-methylphenyl]-N-ethyl-N-methylimidoformamide] | ≥ 70 | ≥ 70 | ≥ 70 | ≥ 70 | ≥ 70 | ≥ 80
10 | 2.07 |  | CCN(C)C=Nc1cc(C)c(Oc2nc(Cc3ccc(Br)cc3)ns2)cc1C [Example 31, N′-(4-{[3-(4-bromobenzyl)-1,2,4-thiadiazol-5-yl]oxy}-2,5-dimethylphenyl)-N-ethyl-N-methylimidoformamide] | ≥ 70 | ≥ 70 | ≥ 70 | ≥ 70 | ≥ 70 | ≥ 80
